In brackets after ≈: the same amount, converted by molar mass.
Assays:
M. abscessus ATCC 19977 = test: MIC assay in 96-well plate format, wild-type strain; assay type: cell-based, Mycobacterium abscessus; conditions: for MICWT: Table 10; for MIC: Table 15, heterocyclic aromatic carbamates, read-out: WT Mab MIC
Procedure, shortened: (§1)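 Two-fold, ten-point dilutions in 7H9 with 2% DMSO; mid-log culture diluted to OD600=0.1 (1×10^7 CFU/mL). Incubated 3 days at 37 °C, shaking 110 RPM; growth = Day 3 minus Day 0 OD600, expressed as percentage of drug-free growth and plotted against concentration. Two biological replicates.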

Δarr M. abscessus = test: MIC assay, isogenic arr-deleted strain; assay type: cell-based, Mycobacterium abscessus; conditions: Table 10
Procedure, shortened: as §1

[1] = Plasma protein binding assay (rapid equilibrium dialysis); assay type: in vitro ADME
Procedure, shortened: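 Rapid equilibrium dialysis ran 4 h at 37° C (300 RPM) with compound-spiked plasma (10,000 ng/mL) on one side and PBS on the other. Each side was then mixed 1:1 […] to equalise matrix before LC-MS/MS quantification.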

Mycobacterium abscessus = test: MIC against Mycobacterium abscessus (strain not given); assay type: cell-based; conditions: Table 13; read-out: Mab MIC
[2] = Mouse pharmacokinetics studies; assay type: in vivo, CD-1 mice; conditions: for AUCp.o.: po; for C-25 deacylation i.v. / C-25 deacylation p.o.: AUC25-O-desacetyl RFB/AUCcompound × 100%, n.d. = undetectable
Experimental: Blood was captured in CB300 blood collection tubes containing K2EDTA and stored on ice. Plasma was recovered after centrifugation and stored at −80° C. until analyzed by high pressure liquid chromatography coupled to tandem mass spectrometry (LC-MS/MS). Pharmacokinetic parameters were calculated using non-compartmental pharmacokinetic analysis. […] Extracts were vortexed for 5 minutes and centrifuged at 4000 RPM for 5 minutes. 75 μL of supernatant was transferred for LC-MS/MS analysis and diluted with 75 μL of Milli-Q deionized water. Rifabutin was purchased from Carbosynth. C25-desacetyl rifabutin and rifabutin-d7 were purchased from Toronto Research Chemical. Verapamil was purchased from Sigma-Aldrich. […] Multiple-reaction monitoring of parent/daughter transitions in electrospray positive-ionization mode was used to quantify all analytes. […] Data processing was performed using Analyst software (version 1.6.2; Applied Biosystems Sciex).

[3] = p.o. doses of 10 mg/kg, Table 12

| Structure (SMILES) | MICWT (M. abscessus ATCC 19977) | MICΔorr (Δarr M. abscessus) | ƒu [1] | plasma unbound fraction ([1]; plasma) | MIC (Mycobacterium abscessus) | further results |
| --- | --- | --- | --- | --- | --- | --- |
| COc1ccc(C(=O)O[C@H]2[C@H](C)[C@H](O)[C@H](C)[C@@H](O)[C@@H](C)/C=C/C=C(\C)C(=O)NC3=C4NC5(CCN(CC(C)C)CC5)N=C4c4c(c(O)c(C)c5c4C(=O)[C@@](C)(O/C=C/[C@H](OC)[C@H]2C)O5)C3=O)cc1 [UMN10] | 0.06 µM | 0.065 µM | 0.02% | 0% | 0.06 µM (≈ 0.0563 µg/mL) |  |
| CO[C@H]1/C=C/O[C@@]2(C)Oc3c(C)c(O)c4c(c3C2=O)C2=NC3(CCN(CC(C)C)CC3)NC2=C(NC(=O)/C(C)=C/C=C/[C@H](C)[C@H](O)[C@@H](C)[C@@H](O)[C@@H](C)[C@H](OC(=O)c2ccc(F)cc2)[C@@H]1C)C4=O [UMN11] | 0.13 µM | 0.069 µM | 0.02% | 0.02% | 0.13 µM (≈ 0.121 µg/mL) |  |
| CO[C@H]1/C=C/O[C@@]2(C)Oc3c(C)c(O)c4c(c3C2=O)C2=NC3(CCN(CC(C)C)CC3)NC2=C(NC(=O)/C(C)=C/C=C/[C@H](C)[C@H](O)[C@@H](C)[C@@H](O)[C@@H](C)[C@H](OC(=O)c2ccc(Cl)cc2)[C@@H]1C)C4=O [UMN12] | 0.13 µM | 0.22 µM | 0.01% | 0.01% | 0.13 µM (≈ 0.123 µg/mL) |  |
| CO[C@H]1/C=C/O[C@@]2(C)Oc3c(C)c(O)c4c(c3C2=O)C2=NC3(CCN(CC(C)C)CC3)NC2=C(NC(=O)/C(C)=C/C=C/[C@H](C)[C@H](O)[C@@H](C)[C@@H](O)[C@@H](C)[C@H](OC(=O)c2ccc(C(F)(F)F)cc2)[C@@H]1C)C4=O [UMN13] | 0.24 µM | 0.66 µM | 0% | 0% | 0.24 µM (≈ 0.235 µg/mL) |  |
| CO[C@H]1/C=C/O[C@@]2(C)Oc3c(C)c(O)c4c(c3C2=O)C2=NC3(CCN(CC(C)C)CC3)NC2=C(NC(=O)/C(C)=C/C=C/[C@H](C)[C@H](O)[C@@H](C)[C@@H](O)[C@@H](C)[C@H](OC(=O)Nc2ccccc2)[C@@H]1C)C4=O [UMN14] | 0.027 µM | 0.042 µM | 0.1% | 0.08% |  | MIC (M. abscessus ATCC 19977): 0.027 µM (≈ 0.025 µg/mL); ƒAUC/MIC ([2]; Table 18): 0.8; CL ([2]; mouse, in vivo): 2.40 mL/min/kg; F ([2]; mouse, in vivo): 38%; Vd ([2]; mouse, in vivo): 1.93 L/kg; AUCp.o. ([2]; mouse, in vivo): 25625 ng·h/mL |
| CO[C@H]1/C=C/O[C@@]2(C)Oc3c(C)c(O)c4c(c3C2=O)C2=NC3(CCN(CC(C)C)CC3)NC2=C(NC(=O)/C(C)=C/C=C/[C@H](C)[C@H](O)[C@@H](C)[C@@H](O)[C@@H](C)[C@H](OC(=O)c2cccc(-c3ccccc3)c2)[C@@H]1C)C4=O [UMN18] | 1.10 µM | 1.05 µM | 0.01% | 0% | 1.1 µM (≈ 1.08 µg/mL) |  |
| CO[C@H]1/C=C/O[C@@]2(C)Oc3c(C)c(O)c4c(c3C2=O)C2=NC3(CCN(CC(C)C)CC3)NC2=C(NC(=O)/C(C)=C/C=C/[C@H](C)[C@H](O)[C@@H](C)[C@@H](O)[C@@H](C)[C@H](OC(=O)c2cccc(C(F)(F)F)c2)[C@@H]1C)C4=O [UMN19] | 0.48 µM | 0.36 µM | 0% | 0% | 0.48 µM (≈ 0.469 µg/mL) |  |
| COC1C=COC2(C)Oc3c(C)c(O)c4c(c3C2=O)C2=NC3(CCN(CC(C)C)CC3)NC2=C(NC(=O)C(C)=CC=CC(C)C(O)C(C)C(O)C(C)C(OC(=O)N2CCOC(C)C2)C1C)C4=O (centres unmarked) [UMN68] | 0.061 µM | 0.033 µM |  |  |  | plasma unbound fraction ([1]; Table 10): 2.40% |
| CO[C@H]1/C=C/O[C@@]2(C)Oc3c(C)c(O)c4c(c3C2=O)C2=NC3(CCN(CC(C)C)CC3)NC2=C(NC(=O)/C(C)=C/C=C/[C@H](C)[C@H](O)[C@@H](C)[C@@H](O)[C@@H](C)[C@H](OC(=O)Nc2nncs2)[C@@H]1C)C4=O [UMN69] | 0.026 µM | 0.027 µM | 5.3% | 5.30% |  | MIC (M. abscessus ATCC 19977): 0.026 µM (≈ 0.0242 µg/mL); ƒAUC/MIC ([2]; Table 18): 26.5; CL ([2]; mouse, in vivo): 6.19 mL/min/kg; F ([2]; mouse, in vivo): 45%; Vd ([2]; mouse, in vivo): 1.14 L/kg; AUCp.o. ([2]; mouse, in vivo): 12103 ng·h/mL |
| COC1C=COC2(C)Oc3c(C)c(O)c4c(c3C2=O)C2=NC3(CCN(CC(C)C)CC3)NC2=C(NC(=O)C(C)=CC=CC(C)C(O)C(C)C(O)C(C)C(OC(=O)N2CCOC(C)C2)C1C)C4=O (centres unmarked) [UMN70] | 0.08 µM | 0.026 µM |  |  |  | plasma unbound fraction ([1]; Table 10): 0.56% |
| CO[C@H]1/C=C/O[C@@]2(C)Oc3c(C)c(O)c4c(c3C2=O)C2=NC3(CCN(CC(C)C)CC3)NC2=C(NC(=O)/C(C)=C/C=C/[C@H](C)[C@H](O)[C@@H](C)[C@@H](O)[C@@H](C)[C@H](OC(=O)N2CCOC(C)(C)C2)[C@@H]1C)C4=O [UMN71] | 0.076 µM | 0.032 µM |  |  |  | plasma unbound fraction ([1]; Table 10): 0.39% |
| CCOC(=O)C1CN(C(=O)O[C@H]2[C@H](C)[C@H](O)[C@H](C)[C@@H](O)[C@@H](C)/C=C/C=C(\C)C(=O)NC3=C4NC5(CCN(CC(C)C)CC5)N=C4c4c(c(O)c(C)c5c4C(=O)[C@@](C)(O/C=C/[C@H](OC)[C@H]2C)O5)C3=O)CCO1 (some centres unmarked) [UMN72] | 0.082 µM | 0.040 µM |  |  |  | plasma unbound fraction ([1]; Table 10): 0.75% |
| CCN1CCN(C(=O)O[C@H]2[C@H](C)[C@H](O)[C@H](C)[C@@H](O)[C@@H](C)/C=C/C=C(\C)C(=O)NC3=C4NC5(CCN(CC(C)C)CC5)N=C4c4c(c(O)c(C)c5c4C(=O)[C@@](C)(O/C=C/[C@H](OC)[C@H]2C)O5)C3=O)CC1 [UMN73] | 0.1 µM | 0.052 µM |  |  |  | plasma unbound fraction ([1]; Table 10): 0.65% |
| CO[C@H]1/C=C/O[C@@]2(C)Oc3c(C)c(O)c4c(c3C2=O)C2=NC3(CCN(CC(C)C)CC3)NC2=C(NC(=O)/C(C)=C/C=C/[C@H](C)[C@H](O)[C@@H](C)[C@@H](O)[C@@H](C)[C@H](OC(=O)NCc2cn(Cc3ccccc3)nn2)[C@@H]1C)C4=O [UMN85] | 0.027 µM | 0.025 µM |  |  |  | plasma unbound fraction ([1]; Table 10): 0.30% |
| CO[C@H]1/C=C/O[C@@]2(C)Oc3c(C)c(O)c4c(c3C2=O)C2=NC3(CCN(CC(C)C)CC3)NC2=C(NC(=O)/C(C)=C/C=C/[C@H](C)[C@H](O)[C@@H](C)[C@@H](O)[C@@H](C)[C@H](OC(=O)c2ncccn2)[C@@H]1C)C4=O [UMN92] |  |  | 9.8% |  | 0.057 µM (≈ 0.0519 µg/mL) |  |
| CO[C@H]1/C=C/O[C@@]2(C)Oc3c(C)c(O)c4c(c3C2=O)C2=NC3(CCN(CC(C)C)CC3)NC2=C(NC(=O)/C(C)=C/C=C/[C@H](C)[C@H](O)[C@@H](C)[C@@H](O)[C@@H](C)[C@H](OC(=O)c2cncs2)[C@@H]1C)C4=O [UMN93] |  |  | 1.6% |  | 0.057 µM (≈ 0.0522 µg/mL) |  |
| CO[C@H]1/C=C/O[C@@]2(C)Oc3c(C)c(O)c4c(c3C2=O)C2=NC3(CCN(CC(C)C)CC3)NC2=C(NC(=O)/C(C)=C/C=C/[C@H](C)[C@H](O)[C@@H](C)[C@@H](O)[C@@H](C)[C@H](OC(=O)Nc2ccncc2)[C@@H]1C)C4=O [UMN105] |  |  | 2.0% |  |  | MIC (M. abscessus ATCC 19977): 0.025 µM (≈ 0.0231 µg/mL); CL ([2]; mouse, in vivo): 7.57 mL/min/kg; F ([2]; mouse, in vivo): 63%; Vd ([2]; mouse, in vivo): 3.78 L/kg; ƒAUC/MIC ([2]; mouse, in vivo): 9.4; AUCp.o. ([2]; mouse, in vivo): 14210 ng·h/mL |
| CO[C@H]1/C=C/O[C@@]2(C)Oc3c(C)c(O)c4c(c3C2=O)C2=NC3(CCN(CC(C)C)CC3)NC2=C(NC(=O)/C(C)=C/C=C/[C@H](C)[C@H](O)[C@@H](C)[C@@H](O)[C@@H](C)[C@H](OC(=O)c2cccnn2)[C@@H]1C)C4=O [UMN111] |  |  | 12.7% |  | 0.051 µM (≈ 0.0465 µg/mL) |  |
| CO[C@H]1/C=C/O[C@@]2(C)Oc3c(C)c(O)c4c(c3C2=O)C2=NC3(CCN(CC(C)C)CC3)NC2=C(NC(=O)/C(C)=C/C=C/[C@H](C)[C@H](O)[C@@H](C)[C@@H](O)[C@@H](C)[C@H](OC(=O)c2ccccc2)[C@@H]1C)C4=O [drawing 217] |  |  |  |  |  | C-25 deacylation i.v. [2]: 0.03%; C-25 deacylation p.o. [2]: 0.008%; CL ([2]; Table 12): 2.4 mL/min/kg; Vd ([2]; Table 12): 2.9 L/kg; t1/2 ([2]; Table 12): 13.8 h; ƒAUC/MIC [2, 3]: 0.08; plasma unbound fraction ([1]; Table 12): 0.03% |
| CO[C@H]1/C=C/O[C@@]2(C)Oc3c(C)c(O)c4c(c3C2=O)C2=NC3(CCN(CC(C)C)CC3)NC2=C(NC(=O)/C(C)=C/C=C/[C@H](C)[C@H](O)[C@@H](C)[C@@H](O)[C@@H](C)[C@H](OC(=O)Nc2ccccc2)[C@@H]1C)C4=O [drawing 220] |  |  |  |  |  | C-25 deacylation i.v. [2]: 0.08%; C-25 deacylation p.o. [2]: 0.001%; CL ([2]; Table 12): 2.4 mL/min/kg; Vd ([2]; Table 12): 1.9 L/kg; t1/2 ([2]; Table 12): 9.3 h; ƒAUC/MIC [2, 3]: 0.43; plasma unbound fraction ([1]; Table 12): 0.0008% |
| CO[C@H]1/C=C/O[C@@]2(C)Oc3c(C)c(O)c4c(c3C2=O)C2=NC3(CCN(CC(C)C)CC3)NC2=C(NC(=O)/C(C)=C/C=C/[C@H](C)[C@H](O)[C@@H](C)[C@@H](O)[C@@H](C)[C@H](OC(=O)c2cccnc2)[C@@H]1C)C4=O [drawing 222] |  |  |  |  |  | CL ([2]; Table 12): 3.0 mL/min/kg; Vd ([2]; Table 12): 1.6 L/kg; ƒAUC/MIC [2, 3]: 28.2 |

Source: patent US20260109712A1, “RIFAMYCINS FOR NONTUBERCULOUS MYCOBACTERIA” (priority 2022, published 2026)
